The source made the active and inactive calls. No cut-off for these calls is given here.
Tests used:
[1] = (§1) Cytotoxicity against human NCI-H2122 cells under anchorage-independent condition assessed as cell growth inhibition after 10 days by nitro blue tetrazolium-based microscopic analysis; assay type: functional; conditions: NCI-H2122, 240 h
[2] = Drug uptake in brain of mouse xenografted with human NCI-H2122 cells at 50 mg/kg, ip after 3 hrs by LC-MS/MS analysis; assay type: ADME, organism-based; conditions: read-out: Drug uptake
[3] = Drug uptake in heart of mouse xenografted with human NCI-H2122 cells at 50 mg/kg, ip after 3 hrs by LC-MS/MS analysis; assay type: ADME, organism-based; conditions: read-out: Drug uptake
[4] = Drug uptake in kidney of mouse xenografted with human NCI-H2122 cells at 50 mg/kg, ip after 3 hrs by LC-MS/MS analysis; assay type: ADME, organism-based; conditions: read-out: Drug uptake
[5] = Drug uptake in liver of mouse xenografted with human NCI-H2122 cells at 50 mg/kg, ip after 3 hrs by LC-MS/MS analysis; assay type: ADME, organism-based; conditions: read-out: Drug uptake
[6] = Drug uptake in lungs of mouse xenografted with human NCI-H2122 cells at 50 mg/kg, ip after 3 hrs by LC-MS/MS analysis; assay type: ADME, organism-based; conditions: lung, read-out: Drug uptake
[7] = Drug uptake in tumor of mouse xenografted with human NCI-H2122 cells at 50 mg/kg, ip after 3 hrs by LC-MS/MS analysis; assay type: ADME, organism-based, Neoplasm; conditions: read-out: Drug uptake
[8] = Plasma concentration in mouse xenografted with human NCI-H2122 cells at 50 mg/kg, ip after 3 hrs by LC-MS/MS analysis; assay type: ADME, organism-based
[9] = target: T1, Ras-related protein Ral-A (Homo sapiens) (UniProt P11233); assay: Inhibition of RalA activity in human H2122 spheroids after 4 hrs by RalBP1 pull down assay
T1 sequence (whole entry): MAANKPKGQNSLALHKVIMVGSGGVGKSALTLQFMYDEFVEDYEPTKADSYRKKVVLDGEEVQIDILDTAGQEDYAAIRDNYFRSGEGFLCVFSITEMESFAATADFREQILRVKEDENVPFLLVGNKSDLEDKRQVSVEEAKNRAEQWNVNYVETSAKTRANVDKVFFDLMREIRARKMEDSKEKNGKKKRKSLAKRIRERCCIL

[10] = Half life in ip dosed mouse plasma; assay type: ADME, organism-based
[11] = target: T2, Ras-related protein Ral-B (Homo sapiens) (UniProt P11234); assay: Inhibition of RalB activity in human H2122 spheroids after 4 hrs by RalBP1 pull down assay
T2 sequence (whole entry): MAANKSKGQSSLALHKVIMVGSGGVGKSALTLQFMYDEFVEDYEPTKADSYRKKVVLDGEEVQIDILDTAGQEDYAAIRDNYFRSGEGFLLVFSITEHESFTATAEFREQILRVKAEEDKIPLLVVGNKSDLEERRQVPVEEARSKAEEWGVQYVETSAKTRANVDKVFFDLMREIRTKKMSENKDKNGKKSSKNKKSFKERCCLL

NCI-H2122 = assay: as §1; assay type: functional

| SMILES | IC50 [1] [µM] | also measured |
| --- | --- | --- |
| COc1ccc(C2C(C#N)=C(N)Oc3c2c(C)nn3C)cc1 (stereo not drawn) | 8.6 | – |
| COc1ccc(C2C(C#N)=C(N)Oc3c2c(C)nn3-c2ccccc2)cc1 (stereo not drawn) | 4.1 | – |
| Cc1nn(C)c2c1C(c1ccc3c(c1)OCCO3)C(C#N)=C(N)O2 (stereo not drawn) | 8.6 | – |
| COc1ccc(-c2nn(-c3ccccc3)c3c2C(c2ccc(F)cc2)C(C#N)=C(N)O3)cc1 (stereo not drawn) | 6 | – |
| N#CC1=C(N)Oc2c(c(-c3ccccc3)nn2-c2ccccc2)C1c1ccc(F)cc1 (stereo not drawn) | 4.1 | – |
| CC(C)c1ccc(C2C(C#N)=C(N)Oc3c2c(-c2ccccc2)nn3C)cc1 (stereo not drawn) | 5.4 | – |
| COc1cc(OC)c(C2C(C#N)=C(N)Oc3c2c(C)nn3C)c(OC)c1 (stereo not drawn) | 1.6 | – |
| Cc1nn(-c2ccccc2)c2c1C(c1ccc(F)cc1)C(C#N)=C(N)O2 (stereo not drawn) | 6.6 | – |
| Cn1nc(-c2ccccc2)c2c1OC(N)=C(C#N)C2c1ccc(C(F)(F)F)cc1 (stereo not drawn) | 4.1 | – |
| COc1ccc(-c2nn(-c3ccccc3)c3c2C(c2ccc(F)cc2)C(C#N)=C(N)O3)cc1OC (stereo not drawn) | 7.6 | – |
| Cc1nn(C)c2c1C(c1cc(F)cc(F)c1)C(C#N)=C(N)O2 (stereo not drawn) | 4.2 | – |
| COc1ccc(-c2nn(C)c3c2C(c2ccc(F)cc2)C(C#N)=C(N)O3)cc1 (stereo not drawn) | > 10 | – |
| COc1ccc(C2C(C#N)=C(N)Oc3c2c(-c2ccccc2)nn3-c2ccccc2)cc1 (stereo not drawn) | 3.1 | – |
| Cc1nn(C)c2c1C(c1ccc(F)cc1)C(C#N)=C(N)O2 (stereo not drawn) | > 10 | – |
| Cc1nn(C)c2c1C(c1ccc(C(F)(F)F)cc1)C(C#N)=C(N)O2 (stereo not drawn) | 2.2 | concentration at 3 h [2]: 1390 ng/g; concentration at 3 h [3]: 2080 ng/g; concentration at 3 h [4]: 2400 ng/g; concentration at 3 h [5]: 4070 ng/g; concentration at 3 h [6]: 1870 ng/g; concentration at 3 h [7]: 1220 ng/g; concentration at 3 h [8]: 5640 ng/mL; inhibition [9]: Dose-dependent effect; half-life [10]: < 1.5 h; inhibition [11]: Dose-dependent effect |
| Cn1nc(-c2ccccc2)c2c1OC(N)=C(C#N)C2c1ccc(OC(F)(F)F)cc1 (stereo not drawn) | 5.5 | – |
| Cn1nc(-c2ccccc2)c2c1OC(N)=C(C#N)C2c1ccccc1 (stereo not drawn) | > 10 | – |
| Cn1nc(-c2ccccc2)c2c1OC(N)=C(C#N)C2c1ccc(-n2ccnc2)cc1 (stereo not drawn) | – | concentration at 3 h [2]: 170 ng/g; concentration at 3 h [3]: 930 ng/g; concentration at 3 h [4]: 630 ng/g; concentration at 3 h [5]: 980 ng/g; concentration at 3 h [6]: 1090 ng/g; concentration at 3 h [7]: 380 ng/g; concentration at 3 h [8]: 490 ng/mL; growth inhibition (GI) (NCI-H2122): Active; inhibition [9]: Dose-dependent effect; half-life [10]: < 1.5 h; inhibition [11]: Dose-dependent effect |
| Cn1nc(-c2ccccc2)c2c1OC(N)=C(C#N)C2c1cc(F)cc(F)c1 (stereo not drawn) | 6.6 | – |
| COc1ccc(-c2nn(C)c3c2C(c2ccccc2)C(C#N)=C(N)O3)cc1 (stereo not drawn) | > 10 | – |
| COc1ccc(-c2nn(-c3ccccc3)c3c2C(c2ccccc2)C(C#N)=C(N)O3)cc1 (stereo not drawn) | 7.2 | – |
| COc1ccc(C2C(C#N)=C(N)Oc3c2c(-c2ccccc2)nn3C)cc1 (stereo not drawn) | > 10 | – |
| COc1ccc(-c2nn(C)c3c2C(c2ccccc2)C(C#N)=C(N)O3)cc1OC (stereo not drawn) | > 10 | – |

— ChEMBL document CHEMBL3870328, “Synthesis of novel Ral inhibitors: An in vitro and in vivo study” (Bioorg Med Chem Lett, 2016)
